Values after ≈ are worked out from the molar mass of the structure shown.

What all share (format): functional
The test system of test [1] is Enterococcus faecium. The test can be described thus: In vitro antibacterial activity against vancomycin-resistant Enterococcus faecium 2164 (VRE.3).
Test [2] has as its system Staphylococcus aureus. Put plainly: In vitro antibacterial activity against Staphylococcus aureus 77 (S.a.2).
Test [3] concerns Enterococcus faecium. The test can be described thus: In vitro antibacterial activity against vancomycin-resistant Enterococcus faecium (VRE.1).
The test system of test [4] is Staphylococcus epidermidis. Put plainly: In vitro antibacterial activity against Staphylococcus epidermidisMR 887E (S. e. MR).
In test [5] the test system is Enterococcus faecium. The test can be described thus: In vitro antibacterial activity against vancomycin-resistant Enterococcus faecium 2006 (VRE.2).
Test [6] deals with Enterococcus faecalis. Put plainly: In vitro antibacterial activity against Enterococcus faecalis EFS008 (E.f.2).
Test [7] has as its system Enterococcus faecalis. Put plainly: In vitro antibacterial activity against Enterococcus faecalis 29212A (E.f.1).
For test [8], the system named is Staphylococcus aureus. The test can be described thus: In vitro antibacterial activity against methicillin-resistant Staphylococcus aureus 241 (MRSA).
Test [9] concerns Staphylococcus aureus. The test can be described thus: In vitro antibacterial activity against Staphylococcus aureus 6538p (S.a.1).
Test [10] relates to Staphylococcus aureus. The test can be described thus: In vitro antibacterial activity against Staphylococcus aureus 29213A (S.a.3).
Test [11] concerns Staphylococcus epidermidis. Put plainly: In vitro antibacterial activity against Staphylococcus epidermidis Q004 (S.e.1).

Consider `CC(=O)NC[C@H]1CN(c2ccc(N3CC=C(c4conc4Cl)CC3)c(F)c2)C(=O)O1`, for which the minimum inhibitory concentration (MIC) in [1] stood at 8 µg/mL (≈ 18.4 µM); in [2], 2 µg/mL (≈ 4.6 µM); in [3], 8 µg/mL (≈ 18.4 µM); in test [4], 8 µg/mL (≈ 18.4 µM); in [5], 8 µg/mL (≈ 18.4 µM); in test [6], 8 µg/mL (≈ 18.4 µM). Besides, the minimum inhibitory concentration (MIC) was determined as 8 µg/mL (≈ 18.4 µM) in [7]; 2 µg/mL (≈ 4.6 µM) in [8]; 2 µg/mL (≈ 4.6 µM) in test [9]; 8 µg/mL (≈ 18.4 µM) in test [10]; 2 µg/mL (≈ 4.6 µM) in [11].

For `CC(=O)NC[C@H]1CN(c2ccc(N3CC=C(c4oncc4C(=O)N(C)C)CC3)c(F)c2)C(=O)O1`, the minimum inhibitory concentration (MIC) in [1], in test [2], in test [3], in [4], in test [5] and in test [6] was 8 µg/mL (≈ 17 µM) in each case. In addition, the MIC in test [7] was found to be 8 µg/mL (≈ 17 µM); in test [8] it was 8 µg/mL (≈ 17 µM); in test [9], 4 µg/mL (≈ 8.48 µM); in test [10], 4 µg/mL (≈ 8.48 µM); in [11] it was 2 µg/mL (≈ 4.24 µM).

In the case of `CC(=O)NC[C@H]1CN(c2ccc(N3CC=C(c4oncc4C)CC3)c(F)c2)C(=O)O1`, the MIC in [1] was 2 µg/mL (≈ 4.83 µM); in test [2], 1 µg/mL (≈ 2.41 µM); in [3], 2 µg/mL (≈ 4.83 µM); in [4], 2 µg/mL (≈ 4.83 µM); in test [5], 2 µg/mL (≈ 4.83 µM); in test [6] it was 4 µg/mL (≈ 9.65 µM). Also, the MIC in [7] was 4 µg/mL (≈ 9.65 µM); in test [8], 2 µg/mL (≈ 4.83 µM); in [9], 2 µg/mL (≈ 4.83 µM); in test [10] it was 4 µg/mL (≈ 9.65 µM); in test [11], 1 µg/mL (≈ 2.41 µM).

For the compound `CC(=O)NC[C@H]1CN(c2ccc(N3CC=C(c4conc4C#N)CC3)c(F)c2)C(=O)O1`, the minimum inhibitory concentration (MIC) in [1] stood at 2 µg/mL (≈ 4.7 µM); in [2], 1 µg/mL (≈ 2.35 µM); in test [3], 2 µg/mL (≈ 4.7 µM); in [4] it was 4 µg/mL (≈ 9.4 µM); in test [5], 2 µg/mL (≈ 4.7 µM); in test [6], 2 µg/mL (≈ 4.7 µM). The MIC in test [7] was determined as 2 µg/mL (≈ 4.7 µM); in [8], 1 µg/mL (≈ 2.35 µM); in test [9] it was 1 µg/mL (≈ 2.35 µM); in [10], 2 µg/mL (≈ 4.7 µM); in [11], 0.5 µg/mL (≈ 1.18 µM).

As to `CC(=O)NC[C@H]1CN(c2ccc(N3CC=C(c4oncc4C(F)(F)F)CC3)c(F)c2)C(=O)O1`, the MIC in test [1], in [2], in test [3], in test [4], in test [5] and in test [6] was above 64 µg/mL throughout. For the same compound, the MIC in [7], in test [9], in [10] and in test [11] was above 64 µg/mL each time.

As to `CC(=O)NC[C@H]1CN(c2ccc(N3CC=C(c4oncc4Cl)CC3)c(F)c2)C(=O)O1`, the MIC came out at 32 µg/mL (≈ 73.6 µM) in test [1]; 8 µg/mL (≈ 18.4 µM) in test [2]; 32 µg/mL (≈ 73.6 µM) in test [3]; 16 µg/mL (≈ 36.8 µM) in test [4]; 32 µg/mL (≈ 73.6 µM) in test [5]; 64 µg/mL (≈ 147 µM) in [6]. The MIC in test [7] came out at 64 µg/mL (≈ 147 µM); in test [8], 4 µg/mL (≈ 9.2 µM); in test [9], 8 µg/mL (≈ 18.4 µM); in [10], 32 µg/mL (≈ 73.6 µM); in test [11] it was 8 µg/mL (≈ 18.4 µM).

As to `CCOC(=O)c1cnoc1C1=CCN(c2ccc(N3C[C@H](CNC(C)=O)OC3=O)cc2F)CC1`, the MIC in test [1] was determined as 8 µg/mL (≈ 16.9 µM); in test [2] it was 4 µg/mL (≈ 8.47 µM); in [3], 16 µg/mL (≈ 33.9 µM); in test [4], 16 µg/mL (≈ 33.9 µM); in test [5], 8 µg/mL (≈ 16.9 µM); in test [6], 8 µg/mL (≈ 16.9 µM). Moreover, the MIC in test [7] was 16 µg/mL (≈ 33.9 µM); in [8] it was 4 µg/mL (≈ 8.47 µM); in [9] it was 8 µg/mL (≈ 16.9 µM); in [10] it was 4 µg/mL (≈ 8.47 µM); in test [11], 4 µg/mL (≈ 8.47 µM).

On to `CC(=O)NC[C@H]1CN(c2ccc(N3CC=C(c4oncc4C#N)CC3)c(F)c2)C(=O)O1`, for which the minimum inhibitory concentration (MIC) turned out to be 4 µg/mL (≈ 9.4 µM) in [1]; 1 µg/mL (≈ 2.35 µM) in [2]; 4 µg/mL (≈ 9.4 µM) in test [3]; 4 µg/mL (≈ 9.4 µM) in test [4]; 4 µg/mL (≈ 9.4 µM) in test [5]; 4 µg/mL (≈ 9.4 µM) in test [6]. In addition, the MIC in test [7] came to 4 µg/mL (≈ 9.4 µM); in [8] it was 2 µg/mL (≈ 4.7 µM); in test [9] it was 2 µg/mL (≈ 4.7 µM); in [10] it was 4 µg/mL (≈ 9.4 µM); in test [11], 1 µg/mL (≈ 2.35 µM).

As for `CC(=O)NC[C@H]1CN(c2ccc(N3CC=C(c4oncc4C(N)=O)CC3)c(F)c2)C(=O)O1`, the minimal inhibitory concentration (MIC) in test [1] stood at 1 µg/mL (≈ 2.26 µM); in test [2], 0.5 µg/mL (≈ 1.13 µM); in [3] it was 1 µg/mL (≈ 2.26 µM); in [4] it was 1 µg/mL (≈ 2.26 µM); in test [5], 1 µg/mL (≈ 2.26 µM); in test [6], 1 µg/mL (≈ 2.26 µM). The MIC in test [7] came to 1 µg/mL (≈ 2.26 µM); in test [8], 0.5 µg/mL (≈ 1.13 µM); in test [9], 0.5 µg/mL (≈ 1.13 µM); in [10] it was 0.5 µg/mL (≈ 1.13 µM); in [11] it was 0.5 µg/mL (≈ 1.13 µM).

Regarding `CC(=O)NC[C@H]1CN(c2ccc(N3CCOCC3)c(F)c2)C(=O)O1` [LINEZOLID], the MIC in test [1] was determined as 2 µg/mL (≈ 5.93 µM); in [2], 0.5 µg/mL (≈ 1.48 µM); in test [3], 2 µg/mL (≈ 5.93 µM); in test [4], 1 µg/mL (≈ 2.96 µM); in [5] it was 2 µg/mL (≈ 5.93 µM); in test [8] it was 0.5 µg/mL (≈ 1.48 µM). Further, the MIC in [9] and in [11] was 0.5 µg/mL (≈ 1.48 µM) throughout.

As to `CN[C@H](CC(C)C)C(=O)N[C@H]1C(=O)N[C@@H](CC(N)=O)C(=O)N[C@H]2C(=O)N[C@H]3C(=O)N[C@H](C(=O)N[C@H](C(=O)O)c4cc(O)cc(O)c4-c4cc3ccc4O)[C@H](O)c3ccc(c(Cl)c3)Oc3cc2cc(c3O[C@@H]2O[C@H](CO)[C@@H](O)[C@H](O)[C@H]2O[C@H]2C[C@](C)(N)[C@H](O)[C@H](C)O2)Oc2ccc(cc2Cl)[C@H]1O` [VANCOMYCIN], the minimal inhibitory concentration (MIC) in [1] was above 64 µg/mL; in test [3] it was 64 µg/mL (≈ 44.2 µM); in test [5], above 64 µg/mL.

What is called MIC is the lowest concentration that inhibits growth of the organism.

These data come from ChEMBL document CHEMBL1146636, “Synthesis and in vitro activity of novel isoxazolyl tetrahydropyridinyl oxazolidinone antibacterial agents” (2003).
